According to US11541068B2, “HMO compositions and methods for reducing autism spectrum disorder symptoms” (Glycom A/S, priority 2017, dated 2023):

What was measured:
faecal microbiota = assay: M-SHIME (M-TripleSHIME) in vitro gastrointestinal model: microbiota and bacterial metabolites; assay type: cell-based, human (healthy adult); details: proximal (PC) and distal (DC) colon reactor; means of three weekly samples
Excerpt: The impact of the HMOs on microbiota and bacterial metabolites was investigated in the M-SHIME® (M-TripleSHIME®) in vitro gastrointestinal model (Prodigest). The typical reactor setup of the M-TripleSHIME® consisted of a succession of four reactors simulating the different parts of the human gastrointestinal tract. The first two reactors were of the fill-and-draw principle to simulate different steps in food uptake and digestion, with peristaltic pumps adding a defined amount of SHIME feed (140 mL 3×/day) and pancreatic and bile liquid (60 ml 3×/day), respectively, to the stomach and small intestine compartment and emptying the respective reactors after specified intervals. The last two compartments were continuously stirred reactors with constant volume and pH control. […]
The M-TripleSHIME® was run in four stages: • 1. […] The baseline microbial community composition and activity in the different reactors was determined by analysis of samples and was used as a reference. • 3. […]
Sample of the liquids in each reactor were collected regularly (three times in a week, on day 1, day 3 and day 5) and were analysed for microbial metabolites and the composition of the resident microbial community. In particular, the bifidobacteria composition was analysed using ITS profiling.

clostridia = details: children with regressive autism; 6-week oral course; cited from earlier work

SMILES | effect on branched SCFA and ammonia production, compared with 2′-FL (FIG. 1) (faecal microbiota) | children with significant improvement in neurobehavioral symptoms (clostridia) | gastrointestinal symptoms (clostridia)
CC(=O)N[C@H]1[C@H](O[C@H]2[C@@H](O)[C@@H](CO)O[C@@H](O[C@H]3[C@H](O)[C@@H](O)C(O)O[C@@H]3CO)[C@@H]2O)O[C@H](CO)[C@@H](O[C@@H]2O[C@H](CO)[C@H](O)[C@H](O)[C@H]2O)[C@@H]1O (mixture of isomers) [LNnT, lacto-N-neotetraose] | similar | – | –
CN[C@H](CC(C)C)C(=O)N[C@H]1C(=O)N[C@@H](CC(N)=O)C(=O)N[C@H]2C(=O)N[C@H]3C(=O)N[C@H](C(=O)N[C@H](C(=O)O)c4cc(O)cc(O)c4-c4cc3ccc4O)[C@H](O)c3ccc(c(Cl)c3)Oc3cc2cc(c3O[C@@H]2O[C@H](CO)[C@@H](O)[C@H](O)[C@H]2O[C@H]2C[C@](C)(N)[C@H](O)[C@H](C)O2)Oc2ccc(cc2Cl)[C@H]1O [vancomycin] | – | eight of the ten children | improvement
